Source: the NIST ThermoML archive (doi:10.1021/acs.jced.8b00692)

Test: xn = mol fraction of the nth substance listed
Conditions: 102 kPa, Liquid; for viscosity: Concentric cylinders viscometry; for speed of sound: Frequency=3 MHz, Single path-length method; for mass density: Vibrating tube method

CCCCCC1CCCCC1 [pentylcyclohexane] + CCCCCCCCCCCCCCCC
Conditions | mass density [kg/m3] | speed of sound [m/s] | viscosity [mPa·s]
293.15 K, x1 = 0.2004 | 777.53 | 1354.6 | 3.1
293.15 K, x1 = 0.4 | 782.39 | 1351.9 | 2.74
293.15 K, x1 = 0.4999 | 785.18 | 1350.6 | 2.56
293.15 K, x1 = 0.5999 | 788.23 | 1349.4 | 2.38
293.15 K, x1 = 0.8006 | 795.35 | 1347.2 | 2.03
293.15 K, x1 = 1 | 804.11 | 1345.9 | 1.7
303.15 K, x1 = 0.2004 | 770.57 | 1317.2 | 2.49
303.15 K, x1 = 0.4 | 775.39 | 1314.4 | 2.22
303.15 K, x1 = 0.4999 | 778.15 | 1313 | 2.08
303.15 K, x1 = 0.5999 | 781.16 | 1311.6 | 1.95
303.15 K, x1 = 0.8006 | 788.18 | 1309 | 1.68
303.15 K, x1 = 1 | 796.8 | 1306.4 | 1.42
313.15 K, x1 = 0.2004 | 763.62 | 1280.5 | 2.04
313.15 K, x1 = 0.4 | 768.39 | 1277.6 | 1.83
313.15 K, x1 = 0.4999 | 771.11 | 1276 | 1.73
313.15 K, x1 = 0.5999 | 774.09 | 1274.5 | 1.61
313.15 K, x1 = 0.8006 | 781 | 1271.3 | 1.41
313.15 K, x1 = 1 | 789.47 | 1267.8 | 1.21
323.15 K, x1 = 0.2004 | 756.66 | 1244.5 | 1.7
323.15 K, x1 = 0.4 | 761.38 | 1241.4 | 1.54
323.15 K, x1 = 0.4999 | 764.07 | 1239.7 | 1.46
323.15 K, x1 = 0.5999 | 766.99 | 1237.9 | 1.37
323.15 K, x1 = 0.8006 | 773.8 | 1234.3 | 1.21
323.15 K, x1 = 1 | 782.12 | 1230.1 | 1.04
333.15 K, x1 = 0.2004 | 749.7 | 1209.3 | 1.44
333.15 K, x1 = 0.4 | 754.35 | 1206 | 1.31
333.15 K, x1 = 0.4999 | 757 | 1204.2 | 1.24
333.15 K, x1 = 0.5999 | 759.88 | 1202.3 | 1.18
333.15 K, x1 = 0.8006 | 766.57 | 1198 | 1.03
333.15 K, x1 = 1 | 774.74 | 1193.4 | 0.895
343.15 K, x1 = 0.2004 | 742.8 | – | 1.24
343.15 K, x1 = 0.4 | 747.4 | – | 1.14
343.15 K, x1 = 0.4999 | 749.9 | – | 1.08
343.15 K, x1 = 0.5999 | 752.9 | – | 1.03
343.15 K, x1 = 0.8006 | 759.4 | – | 0.916
343.15 K, x1 = 1 | 767.3 | – | 0.799
353.15 K, x1 = 0.2004 | 735.8 | – | 1.07
353.15 K, x1 = 0.4 | 740.3 | – | 0.985
353.15 K, x1 = 0.4999 | 742.8 | – | 0.937
353.15 K, x1 = 0.5999 | 745.7 | – | 0.903
353.15 K, x1 = 0.8006 | 752.2 | – | 0.809
353.15 K, x1 = 1 | 759.9 | – | 0.709
363.15 K, x1 = 0.2004 | 728.7 | – | 0.955
363.15 K, x1 = 0.4 | 733.2 | – | 0.884
363.15 K, x1 = 0.4999 | 735.6 | – | 0.843
363.15 K, x1 = 0.5999 | 738.5 | – | 0.805
363.15 K, x1 = 0.8006 | 744.8 | – | 0.724
363.15 K, x1 = 1 | 752.4 | – | 0.637
